According to US7427597B2, “Method of treating brain tissue damages” (Academia Sinica, priority 2005, dated 2008):
Where no end group is shown, it is not given here.

Assay: Physiological parameters in ischemic rats
Format: in vivo
Details: SN treated vs saline treated rats, n=7
Text: Seven SN treated rats and seven-saline treated rats also had their physiological parameters measured.

blood gases: No difference
blood glucose: No difference
serum electrolyte levels: No difference
Sequence: TNEIVEEQYTPQSLATLESVFQELGKLTGPNNQ [SN, secretoneurin]
systemic blood pressure: No difference
